Results published in ChEMBL document CHEMBL1201862, “PubChem BioAssay data set” (2004).
Activity calls are given as the source filed them.

Assays:
[1] = target: X-box-binding protein 1 (Homo sapiens, UniProt P17861); assay type: functional, Cricetulus griseus;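 note: confirmatory dose-response counter-screen serving a CHOP assay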
[2] = test system: HEK293; experiment: Fluorescence-based counterscreen for potentiators or agonists of NPY-Y2: cell-based high-throughput dose response assay to identify inhibitors of cyclic nucleotide gated ion channel (CNGC) activity. In this assay, the parental HEK293 cell line transfected with a cyclic-nucleotide gated ion channel (CNGC)-based cAMP sensor is used to measure inhibition of isoproterenol-induced CNGC activity by test compound.; assay type: functional; conditions: Homo sapiens
[3] = target: fMet-Leu-Phe receptor (Homo sapiens, UniProt P21462); experiment: FPR ligands, dose response (AID 519); assay type: functional
[4] = target: T1, Neuropeptide Y receptor type 1 (Homo sapiens, UniProt P25929); experiment: Fluorescence-based counterscreen for agonists of NPY-Y2: cell-based high-throughput dose response assay for agonists of NPY-Y1.; assay type: functional
T1 sequence (P25929 whole entry): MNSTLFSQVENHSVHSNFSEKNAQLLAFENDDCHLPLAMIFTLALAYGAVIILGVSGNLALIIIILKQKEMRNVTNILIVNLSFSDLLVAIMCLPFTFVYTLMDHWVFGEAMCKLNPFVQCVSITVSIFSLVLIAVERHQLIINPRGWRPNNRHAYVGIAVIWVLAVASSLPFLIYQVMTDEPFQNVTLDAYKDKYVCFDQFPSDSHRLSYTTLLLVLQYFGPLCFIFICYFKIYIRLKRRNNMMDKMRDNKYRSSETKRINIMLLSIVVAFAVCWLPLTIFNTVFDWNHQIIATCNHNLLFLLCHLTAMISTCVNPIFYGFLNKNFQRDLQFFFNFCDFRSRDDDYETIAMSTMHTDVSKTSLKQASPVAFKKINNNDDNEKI

[5] = target: T2, Neuropeptide Y receptor type 2 (Homo sapiens, UniProt P49146); experiment: Fluorescence-based cell-based high-throughput dose response assay for agonists of NPY-Y2. [Related pubchem assays: 1703 (Screening assay (CNGC inhibitors).), 1359 (Screening assay (NPY-Y2 potentiators or agonists).), 1304 (Screening assay (NPY-Y1 potentiators or agonists).), 1710 (Screening assay (NPY-Y2 agonists).), 1791 (Summary AID.)]; assay type: functional
T2 sequence (P49146 whole entry): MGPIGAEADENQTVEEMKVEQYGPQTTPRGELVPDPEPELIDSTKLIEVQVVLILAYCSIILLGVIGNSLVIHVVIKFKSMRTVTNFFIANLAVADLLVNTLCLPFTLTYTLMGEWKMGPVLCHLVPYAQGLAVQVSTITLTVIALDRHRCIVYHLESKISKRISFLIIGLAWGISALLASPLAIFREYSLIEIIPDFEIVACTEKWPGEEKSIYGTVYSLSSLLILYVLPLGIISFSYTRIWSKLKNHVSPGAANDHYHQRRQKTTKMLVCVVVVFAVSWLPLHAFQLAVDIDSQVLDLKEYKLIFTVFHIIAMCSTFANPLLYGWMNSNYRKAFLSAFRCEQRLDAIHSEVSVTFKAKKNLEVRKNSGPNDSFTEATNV

[6] = ARNT/TACC3 interaction disruptors, potency, confirmation, biochemical, AlphaScreen, cherry-picked samples (AID 651703); assay type: functional, Homo sapiens;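 note: His-tagged ARNT PAS-B domain paired with GST-TACC3 E629A dimer coactivator fragment; potency of inhibitors that break up the complex and lower AlphaScreen signal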
[7] = HIV-1 Env-mediated cell fusion inhibitors, dose response, CCR5-tropic Env (AID 2279); assay type: functional
[8] = target: Genome polyprotein (dengue virus type 2, UniProt P29990); experiment: Dengue-2 NS5 methyltransferase inhibitors, primary screen, biochemical, confirmation dose response (AID 588689); assay type: functional
[9] = test system: Vero; experiment: Vero cell cytotoxicity, cytotoxicity control for flavivirus capping enzyme inhibitors (AID 588742); assay type: functional; conditions: Chlorocebus sabaeus
[10] = target: T3, Long-chain-fatty-acid--AMP ligase FadD28 (Mycobacterium tuberculosis, UniProt P9WQ59); experiment: Fluorescence polarization aasay to screen for inhibitors that compete for the binding of FadD28 to a bisubstrate Measured in Biochemical System Using Plate Reader - 2147-01_Inhibitor_Dose_CherryPick_Activity.; assay type: functional, Mycobacterium tuberculosis H37Rv
T3 sequence (P9WQ59 whole entry): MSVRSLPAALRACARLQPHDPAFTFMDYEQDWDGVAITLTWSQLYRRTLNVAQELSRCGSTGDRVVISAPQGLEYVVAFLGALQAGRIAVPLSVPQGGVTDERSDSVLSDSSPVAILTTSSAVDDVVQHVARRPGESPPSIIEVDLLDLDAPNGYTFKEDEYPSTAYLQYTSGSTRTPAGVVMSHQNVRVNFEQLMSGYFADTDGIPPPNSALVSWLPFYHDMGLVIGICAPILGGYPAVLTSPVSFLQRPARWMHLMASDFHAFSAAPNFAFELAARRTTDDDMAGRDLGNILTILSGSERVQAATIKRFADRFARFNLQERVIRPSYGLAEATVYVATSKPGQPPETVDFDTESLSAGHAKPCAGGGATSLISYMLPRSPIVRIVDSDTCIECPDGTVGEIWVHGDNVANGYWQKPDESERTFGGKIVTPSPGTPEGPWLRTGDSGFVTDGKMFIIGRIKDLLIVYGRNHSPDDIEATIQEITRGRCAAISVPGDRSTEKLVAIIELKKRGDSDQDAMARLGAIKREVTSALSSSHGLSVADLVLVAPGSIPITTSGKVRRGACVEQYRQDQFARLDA

[11] = inhibitors of SNCA 5'UTR-driven translation, confirmation, luminescence, H4 neuroglioblastoma cells, dose confirmation (AID 2454); assay type: functional, cell-based;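 note: H4 neuroglioblastoma cells carrying an alpha-synuclein 5'UTR luciferase reporter; potency for inhibition of the luciferase signal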
[12] = test system: BJ; experiment: cytotoxicity toward BJ-TERT-LT-ST fibroblasts, dose response, cell-based, RAS-independent, luminescence (AID 1935); assay type: functional; conditions: Homo sapiens;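 note: BJ fibroblasts immortalized with TERT plus LT and ST oncogenes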
[13] = inhibitors of firefly luciferase expression or activity, dose response, H4 neuroglioma cells, luminescence (AID 1990); assay type: functional, cell-based
[14] = test system: BJ; experiment: cytotoxicity toward BJ-TERT fibroblasts, dose response, cell-based, RAS-independent, luminescence (AID 1933); assay type: functional; conditions: Homo sapiens
[15] = test system: Streptococcus sp. 'group A'; experiment: growth inhibition of control SK(-) GAS strain, dose response, counter-screen for streptokinase expression inhibitor project, luminescence, kanamycin, BacTiterGlo, confirmation (AID 1900); assay type: functional, organism-based
[16] = test system: HEK293; experiment: inhibitors of LMP1-driven NF-kB reporter, dose response, cell-based, HEK293, luciferase, cherry-pick (AID 588343); assay type: functional; conditions: Homo sapiens
[17] = cells; assay type: functional, cell-based
[18] = test system: BJ; experiment: cells; assay type: functional, cell-based; conditions: Homo sapiens
[19] = inhibitors of SNCA 5'UTR-driven reporter translation, confirmation, H4 neuroglioma cells, luminescence (AID 1988); assay type: functional, cell-based
[20] = luciferase reporter signal reduction – luminescence, H4-C neuroglioblastoma cells, dose response (AID 2458); assay type: functional, cell-based;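 note: H4 neuroglioblastoma cells stably carrying a luciferase reporter gene fusion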
[21] = test system: Streptococcus; experiment: Group A Streptococcus viability loss, dose response, counter-screen for streptokinase expression inhibitor project, luminescence, BacTiterGlo (AID 1915); assay type: functional, organism-based;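 note: potency for reduction of bacterial viability or growth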
[22] = test system: BJ; experiment: cytotoxicity toward Ras-transformed BJeLR fibroblasts, dose response, cell-based, alamar blue fluorescence, cherrypicked samples (AID 2631); assay type: functional; conditions: Homo sapiens;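 note: confirmatory dose-response assay in RAS-dependent BJ fibroblasts engineered with TERT, LT and ST, with cytotoxicity read by fluorescence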
[23] = cytotoxicity toward DRD oncogenic fibroblasts, dose response, cell-based, non-viral oncogenic, luminescence (AID 1934); assay type: functional; conditions: Homo sapiens
[24] = target: T4, Tyrosine-protein phosphatase non-receptor type 7 (Homo sapiens, UniProt P35236); experiment: inhibitors of human HePTP phosphatase, […], biochemical, absorbance, leukemia target (AID 521); assay type: functional
T4 sequence (P35236 whole entry): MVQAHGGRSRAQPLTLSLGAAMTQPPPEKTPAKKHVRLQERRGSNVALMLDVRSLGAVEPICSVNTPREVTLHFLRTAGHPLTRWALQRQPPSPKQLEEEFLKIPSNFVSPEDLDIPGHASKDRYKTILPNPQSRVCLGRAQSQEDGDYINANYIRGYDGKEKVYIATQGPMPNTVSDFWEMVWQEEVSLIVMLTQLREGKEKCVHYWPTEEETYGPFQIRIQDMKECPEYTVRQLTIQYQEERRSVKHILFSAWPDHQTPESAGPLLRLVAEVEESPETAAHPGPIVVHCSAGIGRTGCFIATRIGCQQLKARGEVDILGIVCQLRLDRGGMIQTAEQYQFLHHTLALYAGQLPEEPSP

Chain of X-box-binding protein 1 (P17861 whole entry): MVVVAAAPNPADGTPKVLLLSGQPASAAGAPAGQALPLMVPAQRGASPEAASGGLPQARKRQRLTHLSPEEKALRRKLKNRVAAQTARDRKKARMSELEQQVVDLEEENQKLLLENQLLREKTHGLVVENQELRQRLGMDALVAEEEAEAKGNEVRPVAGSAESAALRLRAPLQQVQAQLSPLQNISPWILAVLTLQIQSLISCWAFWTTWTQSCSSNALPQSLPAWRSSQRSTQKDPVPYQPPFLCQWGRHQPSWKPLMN
Chain of fMet-Leu-Phe receptor (P21462 whole entry): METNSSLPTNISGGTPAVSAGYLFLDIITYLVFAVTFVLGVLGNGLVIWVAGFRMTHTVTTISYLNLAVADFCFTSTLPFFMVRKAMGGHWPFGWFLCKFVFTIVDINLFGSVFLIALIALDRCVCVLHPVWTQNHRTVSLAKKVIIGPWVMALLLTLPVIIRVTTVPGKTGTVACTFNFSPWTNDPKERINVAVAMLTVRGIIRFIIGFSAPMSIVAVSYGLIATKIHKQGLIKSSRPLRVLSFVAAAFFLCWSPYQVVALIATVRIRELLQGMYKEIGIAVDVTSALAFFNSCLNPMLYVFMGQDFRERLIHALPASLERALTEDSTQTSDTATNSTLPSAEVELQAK
Chain of Genome polyprotein (P29990 2492-3391 limits assumed): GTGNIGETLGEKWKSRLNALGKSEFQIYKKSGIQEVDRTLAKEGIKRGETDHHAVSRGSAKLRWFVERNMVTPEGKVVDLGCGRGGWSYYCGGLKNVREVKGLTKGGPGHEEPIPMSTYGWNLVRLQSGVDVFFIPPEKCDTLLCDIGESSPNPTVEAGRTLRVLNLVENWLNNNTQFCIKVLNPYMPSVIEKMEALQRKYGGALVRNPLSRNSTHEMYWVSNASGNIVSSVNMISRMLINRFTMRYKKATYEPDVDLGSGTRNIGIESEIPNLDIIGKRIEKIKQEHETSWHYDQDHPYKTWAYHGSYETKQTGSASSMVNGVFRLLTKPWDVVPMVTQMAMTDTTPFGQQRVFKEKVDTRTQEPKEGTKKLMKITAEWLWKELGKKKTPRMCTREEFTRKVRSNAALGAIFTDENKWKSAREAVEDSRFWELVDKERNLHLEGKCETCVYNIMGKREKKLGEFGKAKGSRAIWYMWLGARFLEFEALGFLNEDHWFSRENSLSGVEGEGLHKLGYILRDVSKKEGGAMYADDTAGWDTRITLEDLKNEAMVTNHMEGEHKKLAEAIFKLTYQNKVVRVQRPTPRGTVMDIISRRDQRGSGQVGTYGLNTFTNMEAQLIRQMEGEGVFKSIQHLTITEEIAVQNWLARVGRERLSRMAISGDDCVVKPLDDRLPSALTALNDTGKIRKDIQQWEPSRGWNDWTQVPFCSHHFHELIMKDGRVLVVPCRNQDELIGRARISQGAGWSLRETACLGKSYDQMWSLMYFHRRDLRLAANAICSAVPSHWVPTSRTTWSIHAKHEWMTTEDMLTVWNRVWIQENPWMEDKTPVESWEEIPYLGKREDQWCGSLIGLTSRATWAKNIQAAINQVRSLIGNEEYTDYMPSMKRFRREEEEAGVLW

CCCc1nc2oc(C(=O)c3ccccc3)c(N)c2c2c1COC(C)(C)C2
Absolute IC50 (XBP1) [1]: 10 µM

O=C(O)C1CC=CCC1C(=O)N1CCN(c2nc(-c3ccccc3)c3ccccc3n2)CC1 (stereo not drawn)
EC50 [2]: > 3.94 µM (active)
Ki [3]: > 66.7 µM (inactive)
EC50 [4]: 22 µM (not active)
EC50 [5]: > 35.4 µM (not active)

CC(C(=O)Nc1ccc(O)c(C(=O)O)c1)N1C(=O)/C(=C/c2cccs2)SC1=S (stereo not drawn)
AC50 [6]: 132 µM (active)
IC50 [7]: > 50 µM (active)
IC50 [8]: 41.1 µM (active)
CC50 [9]: > 40 µM (active)
AC50 [10]: > 100 µM (inactive)

O=[N+]([O-])c1cccc2c(N3CCOCC3)ccnc12
EC50 [2]: > 35.4 µM (not active)
EC50 [4]: > 35.4 µM (not active)
EC50 [5]: > 35.4 µM (not active)

CN(Cc1cnc2nc(N)nc(N)c2n1)c1ccc(C(=O)N[C@@H](CCC(=O)O)C(=O)O)cc1
EC50 [11]: 0.011 µM (active)
EC50 [12]: > 150 µM (not active)
EC50 [13]: < 0.1 µM (active)
EC50 [14]: > 150 µM (not active)
EC50 [15]: 0.621 µM (active)
AC50 [16]: 0.332 µM (active)
EC50 [17]: 0.078 µM (active)
EC50 [18]: < 0.46 µM (active)
EC50 [19]: < 0.1 µM (active)
EC50 [20]: 0.074 µM (active)
EC50 [21]: 0.65 µM (active)
EC50 [22]: > 133 µM (inactive)
EC50 [23]: 0.244 µM (active)

O=C(NCCCN1CCCC1=O)c1ccc(Cl)c(NS(=O)(=O)c2ccc(F)cc2)c1
IC50 [24]: > 100 µM (not active)

C=CCSc1nsc(N)n1
IC50 [24]: > 100 µM (not active)
